Measured values taken from patent publication US8013006B2.
pIC50: −log10 of the molar value. Where two headings read alike, the source gives them in different places.

Test system: HCV replicon
Assay: microbe, parasite or virus in culture
Assay type: cell-based
Details: read-out: Replicon IC5Os
[1] = Replicon IC50 values are determined by firefly luciferase signal, bicistronic replicon, 2 days

Row | Compound | pIC50 [1] | pIC50 (Hepatitis C virus, 48 h)
1 | CCn1c(-c2ccc(C(=O)NCCNC)cc2)c(C#N)c2ccc(OC)cc21 [Compound 564] | 5.70 to 6.30 | –
2 | CCn1c(-c2ccc(NC(C)=O)cc2)c(C#N)c2ccccc21 [Compound 565] | < 5.70 | –
3 | CCn1c(-c2ccc(NC(=O)COC)cc2)c(C#N)c2ccccc21 [Compound 566] | < 5.70 | –
4 | CCn1c(-c2ccc(C(N)=O)cc2)c(C#N)c2cc(OC)ccc21 [Compound 568] | < 5.70 | –
5 | CCNC(=O)c1ccc(-c2c(C#N)c3cc(OC)ccc3n2CC)cc1 [Compound 569] | 5.70 to 6.30 | –
6 | CCn1c(-c2ccc(C(=O)NC3CC3)cc2)c(C#N)c2cc(OC)ccc21 [Compound 571] | 5.70 to 6.30 | –
7 | CCn1c(-c2ccc(C(=O)NCCOC)cc2)c(C#N)c2cc(OC)ccc21 [Compound 572] | 5.70 to 6.30 | –
8 | CCn1c(-c2ccc(C(=O)N3CCCN(C)CC3)cc2)c(C#N)c2cc(OC)ccc21 [Compound 573] | < 5.70 | –
9 | CCN(CC)S(=O)(=O)Nc1cccc(-c2c(C#N)c3ccc(OC)cc3n2CC)c1 [Compound 574] | < 5.70 | –
10 | CCS(=O)(=O)Nc1ccc(-c2cc3cc(OC)ccc3n2C)cc1 [Compound 575] | 5.70 to 6.30 | –
11 | CCn1c(-c2cccc(NS(=O)(=O)N3CCCC3)c2)c(C#N)c2ccc(OC)cc21 [Compound 576] | < 5.70 | –
12 | CCS(=O)(=O)Nc1ccc(-c2cc3c(OC)cccc3n2C)cc1 [Compound 577] | 5.70 to 6.30 | –
13 | CCn1c(-c2ccc3occc3c2)c(C#N)c2ccc(OC)cc21 [Compound 578] | 5.70 to 6.30 | –
14 | CCn1c(-c2cccc(NC(=O)OC)c2)c(C#N)c2ccc(OC(C)C)cc21 [Compound 581] | – | 5.70 to 6.30
15 | CCOC(=O)Nc1cccc(-c2c(C#N)c3ccc(OC(C)C)cc3n2CC)c1 [Compound 582] | – | 5.70 to 6.30
16 | CCn1c(-c2cccc(NC(=O)OCCF)c2)c(C#N)c2ccc(OC(C)C)cc21 [Compound 583] | 5.70 to 6.30 | –
17 | CCn1c(-c2cccc(NC(=O)OCCCl)c2)c(C#N)c2ccc(OC(C)C)cc21 [Compound 584] | < 5.70 | –
18 | CCCOC(=O)Nc1cccc(-c2c(C#N)c3ccc(OC(C)C)cc3n2CC)c1 [Compound 585] | – | 5.70 to 6.30
19 | CCn1c(-c2cccc(NC(=O)OCCCCl)c2)c(C#N)c2ccc(OC(C)C)cc21 [Compound 586] | 5.70 to 6.30 | –
20 | CCn1c(-c2cccc(NC(=O)OC(C)C)c2)c(C#N)c2ccc(OC(C)C)cc21 [Compound 587] | 5.70 to 6.30 | –
21 | C#CCOC(=O)Nc1cccc(-c2c(C#N)c3ccc(OC(C)C)cc3n2CC)c1 [Compound 588] | < 5.70 | –

Row | Compound | pIC50 [1] | pIC50 (Hepatitis C virus, 48 h)
22 | CCn1c(-c2cccc(NC(=O)OCCOC)c2)c(C#N)c2ccc(OC(C)C)cc21 [Compound 589] | 5.70 to 6.30 | –
23 | CCn1c(-c2cccc(NC(=O)OCC(C)C)c2)c(C#N)c2ccc(OC(C)C)cc21 [Compound 591] | < 5.70 | –
24 | CC#CCOC(=O)Nc1cccc(-c2c(C#N)c3ccc(OC(C)C)cc3n2CC)c1 [Compound 592] | < 5.70 | –
25 | CCn1c(-c2cccc(NC(=O)OCc3ccccc3)c2)c(C#N)c2ccc(OC(C)C)cc21 [Compound 593] | < 5.70 | –
26 | CCn1c(-c2cccc(NC(=O)OCCl)c2)c(C#N)c2ccc(OC(C)C)cc21 [Compound 594] | < 5.70 | –
27 | CCCCOC(=O)Nc1cccc(-c2c(C#N)c3ccc(OC(C)C)cc3n2CC)c1 [Compound 595] | < 5.70 | –
28 | C=CCOC(=O)Nc1cccc(-c2c(C#N)c3ccc(OC(C)C)cc3n2CC)c1 [Compound 596] | 5.70 to 6.30 | –
29 | C=CC(C)OC(=O)Nc1cccc(-c2c(C#N)c3ccc(OC(C)C)cc3n2CC)c1 (centres unmarked) [Compound 597] | < 5.70 | –
30 | CCCn1c(-c2cccc(NS(=O)(=O)CC)c2)c(C#N)c2ccc(OC)cc21 [Compound 599] | < 5.70 | –
31 | CCCNC(=O)Nc1cccc(-c2c(C#N)c3ccc(OC)cc3n2CCC)c1 [Compound 600] | < 5.70 | –
32 | CCOC(=O)Nc1cc(-c2c(C#N)c3ccc(OC(C)C)cc3n2CC)ccc1OC [Compound 603] | < 5.70 | –
33 | CCOC(=O)Nc1ccc(F)c(-c2c(C#N)c3ccc(OC(C)C)cc3n2CC)c1 [Compound 604] | < 5.70 | –
34 | CCOC(=O)Nc1cccc(-c2c(C#N)c3cc(N4CCOCC4)ccc3n2CC)c1 [Compound 605] | < 5.70 | –
35 | CCCS(=O)(=O)Nc1ccc(-c2c(C#N)c3cc(N4CCOCC4)ccc3n2CC)cc1 [Compound 608] | 5.70 to 6.30 | –
36 | CCn1c(-c2ccc(NS(=O)(=O)CC)cc2)c(C#N)c2cc(N3CCOCC3)ccc21 [Compound 609] | 5.70 to 6.30 | –
37 | CCn1c(-c2ccc(NS(=O)(=O)CC(F)(F)F)cc2)c(C#N)c2cc(Cl)ccc21 [Compound 615] | < 5.70 | –
38 | CCNC(=O)Nc1ccc(-c2c(C#N)c3cc(Cl)ccc3n2CC)cc1 [Compound 620] | 5.70 to 6.30 | –
39 | CCCn1c(-c2ccc(NC(=O)OCC)cc2)c(C#N)c2ccc(OC)cc21 [Compound 624] | 5.70 to 6.30 | –
40 | CCCOC(=O)Nc1ccc(-c2c(C#N)c3ccc(OC)cc3n2CCC)cc1 [Compound 625] | > 6.30 | –
41 | CCn1c(-c2cccc(NS(=O)(=O)CCCCl)c2)c(C#N)c2cc(Cl)ccc21 [Compound 629] | < 5.70 | –
42 | CC(C)CCn1c(-c2ccc(NS(C)(=O)=O)cc2)c(C#N)c2cc(Cl)ccc21 [Compound 630] | 5.70 to 6.30 | –

Row | Compound | pIC50 [1] | pIC50 (Hepatitis C virus, 48 h)
43 | C=Cn1c(-c2ccc(NS(C)(=O)=O)cc2)c(C#N)c2ccc(OC)cc21 [Compound 632] | 5.70 to 6.30 | –
44 | C=Cn1c(-c2ccc(NS(=O)(=O)CCC)cc2)c(C#N)c2ccc(OC)cc21 [Compound 634] | 5.70 to 6.30 | –
45 | C=Cn1c(-c2ccc(NS(=O)(=O)CCCCl)cc2)c(C#N)c2ccc(OC)cc21 [Compound 636] | > 6.30 | –
46 | CCn1c(-c2ccc(NC(=O)OCCCl)cc2)c(C#N)c2ccc(OC)cc21 [Compound 637] | – | > 6.30
47 | CCCn1c(-c2cccc(NS(=O)(=O)CCC)c2)c(C#N)c2ccc(OC)cc21 [Compound 639] | < 5.70 | –
48 | CCCn1c(-c2ccc(NC(=O)OCCF)cc2)c(C#N)c2ccc(OC)cc21 [Compound 640] | 5.70 to 6.30 | –
49 | CCCn1c(-c2ccc(N(C)S(=O)(=O)CC)cc2)c(C#N)c2ccc(OC)cc21 [Compound 643] | 5.70 to 6.30 | –
50 | CCC(=O)Nc1ccc(-c2c(C#N)c3cc(OC)ccc3n2CC)cc1 [Compound 644] | < 5.70 | –
51 | CCn1c(-c2ccc(NC(=O)c3ccc4c(c3)OCO4)cc2)c(C#N)c2ccccc21 [Compound 645] | < 5.70 | –
52 | CCn1c(-c2ccc(NC(=O)c3ccco3)cc2)c(C#N)c2ccccc21 [Compound 646] | 5.70 to 6.30 | –
53 | CCn1c(-c2ccc(C(=O)Nc3ccc(Cl)cc3)cc2)c(C#N)c2cc(OC)ccc21 [Compound 647] | < 5.70 | –
54 | CCn1c(-c2ccc(C(=O)Nc3ccc(Cl)c(Cl)c3)cc2)c(C#N)c2cc(OC)ccc21 [Compound 648] | 5.70 to 6.30 | –
55 | CCCn1c(-c2ccc(N3CCCS3(=O)=O)cc2)c(C#N)c2ccc(OC)cc21 [Compound 649] | 5.70 to 6.30 | –
56 | CCn1c(-c2ccc(NS(=O)(=O)CCN3CCSCC3)cc2)c(C#N)c2ccc(OC)cc21 [Compound 654] | < 5.70 | –
57 | COc1ccc2c(C#N)c(-c3ccc(NS(C)(=O)=O)cc3)n(CC3CCCC3)c2c1 [Compound 655] | < 5.70 | –
58 | CCn1c(-c2ccc(N)cc2)c(C#N)c2ccc(OC(F)(F)F)cc21 [Compound 656] | < 5.70 | –
59 | CCn1c(-c2ccc(NS(=O)(=O)CC)cc2)c(C#N)c2c(Cl)cccc21 [Compound 657] | < 5.70 | –
60 | N#Cc1c(-c2ccc(N3CCCS3(=O)=O)cc2)n(CC2CC2)c2cc(OC(F)F)ccc12 [Compound 659] | 5.70 to 6.30 | –
61 | CCCS(=O)(=O)Nc1ccccc1-c1c(C#N)c2ccc(OC)cc2n1CC [Compound 662] | – | > 6.30
62 | CC(C)Oc1ccc2c(C#N)c(-c3ccc(O)c(N)c3)[nH]c2c1 [Compound 663] | < 5.70 | –
63 | CCCOC(=O)Nc1ccc(F)c(-c2c(C#N)c3ccc(OC(C)C)cc3n2CC)c1 [Compound 664] | < 5.70 | –

Row | Compound | pIC50 [1] | pIC50 (Hepatitis C virus, 48 h)
64 | CCn1c(-c2cc(NC(=O)OCCCl)ccc2F)c(C#N)c2ccc(OC(C)C)cc21 [Compound 665] | < 5.70 | –
65 | CCn1c(-c2cccc(CN(C)S(C)(=O)=O)c2)c(C#N)c2ccc(OC)cc21 [Compound 673] | < 5.70 | –
66 | CCS(=O)(=O)Nc1ccc(-c2c(C#N)c3ccc(OC)cc3n2CCOC)cc1 [Compound 674] | < 5.70 | –
67 | CCn1c(-c2ccc3c(c2)CCN3)c(C#N)c2ccc(OC)cc21 [Compound 678] | < 5.70 | –
68 | CCCS(=O)(=O)Nc1ccc(-c2c(C#N)c3ccc(OC(F)F)cc3n2CC2CC2)cc1 [Compound 682] | 5.70 to 6.30 | –
69 | N#Cc1c(-c2ccc(NS(=O)(=O)CCCCl)cc2)n(CC2CC2)c2cc(OC(F)F)ccc12 [Compound 683] | 5.70 to 6.30 | –
70 | CCS(=O)(=O)N(C)c1ccc(-c2c(C#N)c3ccc(OC)cc3n2C(C)C)cc1 [Compound 684] | < 5.70 | –
71 | CCCn1c(-c2ccc(N(C)S(=O)(=O)CC)cc2)c(C#N)c2ccc(OC(F)F)cc21 [Compound 685] | 5.70 to 6.30 | –
72 | CCS(=O)(=O)N(C)c1ccc(-c2c(C#N)c3ccc(OC)cc3n2CC2CC2)cc1 [Compound 686] | 5.70 to 6.30 | –
73 | CCS(=O)(=O)N(C)c1ccc(-c2c(C#N)c3ccc(OC(F)F)cc3n2C)cc1 [Compound 687] | > 6.30 | –
74 | COc1ccc2c(C#N)c(-c3ccc(N(C)S(C)(=O)=O)cc3)n(CC3CC3)c2c1 [Compound 688] | 5.70 to 6.30 | –
75 | CCS(=O)(=O)N(C)c1ccc(-c2c(C#N)c3ccc(OC)cc3n2C)cc1 [Compound 694] | 5.70 to 6.30 | –
76 | CCCn1c(-c2ccc(N(C)S(C)(=O)=O)cc2)c(C#N)c2ccc(OC)cc21 [Compound 695] | 5.70 to 6.30 | –
77 | COc1ccc2c(C#N)c(-c3ccc(N(C)S(C)(=O)=O)cc3)n(C(C)C)c2c1 [Compound 696] | 5.70 to 6.30 | –
78 | CCn1c(-c2ccc(N(C)S(=O)(=O)CCN3CCCC3)cc2)c(C#N)c2ccc(OC)cc21 [Compound 697] | – | > 6.30
79 | CCn1c(-c2ccc(N(C)S(=O)(=O)CCN3CCSCC3)cc2)c(C#N)c2ccc(OC)cc21 [Compound 698] | – | 5.70 to 6.30
80 | CCCS(=O)(=O)N1CCc2cc(-c3c(C#N)c4ccc(OC)cc4n3CC)ccc21 [Compound 703] | 5.70 to 6.30 | –
81 | CCn1c(-c2cccc(NS(=O)(=O)NCCCl)c2)c(C#N)c2ccc(OC)cc21 [Compound 704] | < 5.70 | –
82 | CCn1c(-c2cccc(N3CCNS3(=O)=O)c2)c(C#N)c2ccc(OC)cc21 [Compound 705] | < 5.70 | –
83 | CCCCn1c(-c2ccc(NS(=O)(=O)CCC)cc2)c(C#N)c2ccc(OC)cc21 [Compound 708] | 5.70 to 6.30 | –
